The test system of one test is H3 histone (Lys9). Briefly: Histone acetylation, Western blot in CEM cells. Type of test: cell-based, human. Here is the method: CEM cells were cultured in Dulbeco's modified essential medium with 4.5 g dextrose/l, 10% of foetal calf serum, 2 mM glutamine, 100 U/ml penicillin and 100 μg/ml streptomycin with/without the indicated concentrations of HDAC inhibitor TSA or I.3. At selected time points, cells were harvested, washed in ice cold Hank's balanced salt solution and solubilized on ice using SDS-PAGE sample buffer containing protease and phosphatase inhibitors (10 μg/ml of leupeptin, 10 μg/ml of aprotinin, 10 μg/ml of soybean trypsin inhibitor, 100 μmol of benzamide, 1 mM of sodium vanadate, 1 mM of NaF, 1 mM of phenylphosphate) and boiled immediately.
Total cellular proteins (100 μg/well) were separated on SDS-PAGE electrophoresis, blotted on polyvinyldifluoride membranes and acetylated histone was detected using a anti-acetyl(Lys9)-histone H3 rabbit polyclonal antibody (Cell Signalling Technology, Beverly, Mass.; Cat# 9671L) and visualized by chemilumniuscence (ECL-Western Blotting System, Amersham). Details of the Western blot technique are described in Ausubel, F. M., Brent, R, Kingston, R. E., Moore, D. D., Seidman, J. G., Smith, J. A., Struhl, K. (Eds): Short Protocols in Molecular. Biology, 2nd edition, John Wiley & Sons, New York, Chichester, Brisbane, Toronto, Singapore, 1992, page 10–33–10–35.
For orientation: A western blot detects proteins with antibodies after separation by electrophoresis.

The test system of test [1] is CEM-VCR 3/D5 human T-lymphoblastic leukemia, vincristin resistant. Description: MTT cytotoxicity assay, CEM-VCR 3/D5. It counts as cell-based. As to conditions: 72 hours, read-out: TCS50. The source says: (§1) One of the parameters used as the basis for colorimetric assays is the metabolic activity of viable cells. For example, a microtiter assay which uses the tetrazolium salt MTT is now widely used to quantitate cell proliferation and cytotoxicity [Hajdúch M, Mihál V, Minarík J, Fáber E, Safárová M, Weigl E, Antálek P.: Cytotechnology, 1996, 19, 243–245]. For instance, this assay is used in drug screening programs and in chemosensitivity testing. Because tetrazolium salts are cleaved only by metabolically active cells, these assays exclusively detect viable cells. In the case of the MTT assay, yellow soluble tetrazolium salt is reduced to a coloured water-insoluble formazan salt. After it is solubilized, the formazan formed can easily and rapidly be quantified in a conventional ELISA plate reader at 570 nm (maximum absorbancy). The quantity of reduced formazan corresponds to the number of vital cells in the culture. […]
(§2) The cell suspensions that were prepared and diluted according to the particular cell type and the expected target cell density (2,500–30,000 cells per well based on cell growth characteristics) were added by pipette (80 μl) into 96/well microtiter plates. […] Usually, test compounds were evaluated at six 4-fold dilutions. […] The tumour cell survival (TCS) was calculated using the following equitation: TCS=(ODdrug exposed well/mean ODcontrol wells)×100%. […]
In general terms: Formazan colour is commonly taken as a measure of viable cells.

Test [2] has as its system CEM human T-lymphoblastic leukemia. Briefly: MTT cytotoxicity screening assay, CEM. Type of test: cell-based. The source says: One of the parameters used as the basis for colorimetric assays is the metabolic activity of viable cells. For example, a microtiter assay which uses the tetrazolium salt MTT is now widely used to quantitate cell proliferation and cytotoxicity [Hajdúch M, Mihál V, Minarík J, Fáber E, Safárová M, Weigl E, Antálek P.: Cytotechnology, 1996, 19, 243–245]. For instance, this assay is used in drug screening programs and in chemosensitivity testing. Because tetrazolium salts are cleaved only by metabolically active cells, these assays exclusively detect viable cells. In the case of the MTT assay, yellow soluble tetrazolium salt is reduced to a coloured water-insoluble formazan salt. After it is solubilized, the formazan formed can easily and rapidly be quantified in a conventional ELISA plate reader at 570 nm (maximum absorbancy). The quantity of reduced formazan corresponds to the number of vital cells in the culture.
Human T-lymphoblastic leukaemia cell line CEM was used for routine screening of these compounds. […] The cells were maintained in Nunc/Corning 80 cm^2 plastic tissue culture flasks and cultured in cell culture medium (DMEM with 5 g/l glucose, 2 mM glutamine, 100 U/ml penicillin, 100 μg/ml streptomycin, 10% foetal calf serum and sodium bicarbonate). Individual compounds were dissolved in 10% diiethylsulfoxide/saline, pH 8.0.
The cell suspensions that were prepared and diluted according to the particular cell type and the expected target cell density (2,500–30,000 cells per well based on cell growth characteristics) were added by pipette (80 μl) into 96/well microtiter plates. Inoculates were allowed a pre-incubation period of 24 hours at 37° C. and 5% CO2 for stabilisation. Four-fold dilutions of the intended test concentration were added at time zero in 20 μl aliquots to the microtiter plate wells. Usually, test compounds were evaluated at six 4-fold dilutions. In routine testing, the highest well concentration was 250 μM, but it may differ, depending on the agent. All drug concentrations were examined in duplicate. Incubations of cells with the test compounds lasted for 72 hours at 37° C., in 5% CO2 atmosphere and 100% humidity. At the end of the incubation period, the cells were assayed by using the MTT assay. […] After this incubation period, formazan was solubilized by the addition of 100 μl/well of 10% SDS in water (pH=5.5) followed by further incubation at 37° C. overnight The optical density (OD) was measured at 540 nm with the Labsystem iEMS Reader MF(UK). The tumour cell survival (TCS) was calculated using the following equitation: TCS=(ODdrug exposed well/mean ODcontrol wells)×100%. The TCS50 value, the drug concentration lethal to 50% of the tumour cells, was calculated from the obtained dose response curves. […]

The subject of another test is human normal lymphocytes. Description: MTT cytotoxicity assay, normal lymphocytes. Type of test: cell-based. To be noted: 72 hours, read-out: TCS50.
From the text: as §1, §2

A further test deals with CEM cells. Description: Flow cytometry of total DNA content (cell cycle, apoptosis) in CEM cells. It counts as cell-based, human. As for the experimental part:
Hypophosphorylation of Rb protein is accompanied with cell cycle block on the G1/S transition. To investigate whether incubation of tumour cells with betulinines will result in cell cycle block and/or apoptosis, a flow-cytometry study was performed with measurement of total DNA content in CEM cells treated with/without I.3. Taxol (paclitaxel) was used as a positive control, since this drug is known to result in the cumulation of cells in the G2 phase.
Briefly, CEM cells were cultured in Dulbeco's modified essential medium with 4.5 g dextrose/l, 10% of foetal calf serum, 2 mM glutamine, 100 U/ml penicillin and 100 μg/ml streptomycin with/without the indicated concentrations of paclitaxel or I.3 (FIG. 4A). At selected time points, cells were harvested, washed in ice cold Hank's balanced salt solution (HBSS) and fixed in 70% ethanol at −20° C. overnight. The next day, ethanol was removed by centrifugation, cells were washed twice in HBSS and a cellular pellet (10^6 cells) was reconstituted in staining solution (propidium iodide 60 μg/ml, DNA-se free RNA-se 175 U/ml in HBSS) for 15 minutes at 37° C. The DNA content of individual cells was analyzed on flow cytometer Excalibur (Becton and Dickinson) at excitation wavelength of 488 nm.
In general terms: Flow cytometry measures light scatter and fluorescence of single cells or particles in a stream.

In test [3] the test system is DU145 human prostate cancer, androgen independent, Rb−/−. Description: MTT cytotoxicity assay, DU145. Type of test: cell-based. To be noted: 72 hours, read-out: TCS50.
From the text: as §1, §2

For test [4], the system named is CEM-DNR 1/C2 human T-lymphoblastic leukemia, daunorubicin resistant. Briefly: MTT cytotoxicity assay, CEM-DNR 1/C2. It counts as cell-based. To be noted: 72 hours, read-out: TCS50.
From the text: as §1, §2

For test [5], the system named is NIH3T3 mouse immortalised fibroblasts. Briefly: MTT cytotoxicity assay, NIH3T3. It counts as cell-based. As to conditions: 72 hours, read-out: TCS50.
From the text: as §1, §2

The test system of test [6] is K562-GEM human promyelocytic leukemia, gemcitabin resistant. Description: MTT cytotoxicity assay, K562-GEM. As to conditions: 72 hours, read-out: TCS50. It counts as cell-based.
From the text: as §1, §2

The subject of test [7] is K562 human promyelocytic leukemia. Briefly: MTT cytotoxicity assay, K562. Type of test: cell-based. As to conditions: 72 hours, read-out: TCS50.
From the text: as §1, §2

The next test deals with MEL-3 human melanoma. Briefly: MTT cytotoxicity assay, MEL-3. It counts as cell-based. To be noted: 72 hours, read-out: TCS50.
From the text: as §1, §2

Structures are written as SMILES. Like-named read-outs stand apart in the source and are kept apart here.

With `CC(=O)OC[C@@]1(C(=O)O)CC[C@]2(C)[C@H](CC[C@@H]3[C@@]4(C)CC[C@H](OC(C)=O)C(C)(C)[C@@H]4CC[C@]32C)C1=O` [I.3, 3β,28-diacetoxy-18-oxo-19,20,21,29,30-pentanorlupan-22-oic acid], the “time points showing histone acetylation” value with H3 histone (Lys9) (2 μM (IC50)) was 45 to 120 min. Besides, in the test with H3 histone (Lys9) (20 μM (10×IC50)), the “time to appearance of acetylated histone” value is 30 min. Also, in the test with H3 histone (Lys9) (Western blot (FIG. 5)), the “acetylation of H3 histone in Lys9 position” value is on record as “rapidly acetylated”. The IC50 turned out to be 2900 nM in test [1]; 2000 nM in test [2] (CEM cells, as stated in the histone acetylation study, read-out: IC50); 1000 nM in test [2] (CEM, MTT assay, 72 hours, read-out: TCS50); 13000 nM in the test with human normal lymphocytes; 800 nM in test [3]; 600 nM in test [4]. Also, the IC50 stood at 7200 nM in test [5], 900 nM in [6], 200 nM in [7] and 1300 nM in the test on MEL-3 human melanoma. For the same molecule, in the test on CEM cells (propidium iodide flow cytometry (FIG. 4A)), the cell cycle distribution result was “induces cumulation of cells in G0/G1 phases”. In the test with CEM cells (propidium iodide flow cytometry (FIG. 4B)), the “induction of apoptosis (sub-G1 cells)” value was “rapid apoptosis”.

Source of the values: patent publication US7041701B2, “Triterpenoid derivatives” (Univerzita Palackeho V Olomouci, priority 2000, dated 2006).
